Data taken from ChEMBL document CHEMBL1156105 (J Med Chem, 2009).
The source made the active and inactive calls. The calls are words filed in the database; no cut-off is given here.

Experiments:
[1] = tested on: Plasma; assay: Metabolic stability in 50% human plasma assessed as aspirin release at pH 7.4 by RP-HPLC; format: ADME, cell-free; further: time not given here
[2] = tested on: Plasma; assay: Metabolic stability in 10% human plasma assessed as aspirin release at pH 7.4 by RP-HPLC; format: ADME, cell-free; further: time not given here
[3] = Metabolic stability in 50% human plasma assessed as half life at pH 7.4 by RP-HPLC
[4] = Metabolic stability in 10% human plasma assessed as half life at pH 7.4 by RP-HPLC
[5] = Antiplatelets aggregatory activity in human platelets rich plasma assessed as inhibition of collagen-induced platelets aggregation by aggregometry; format: functional, cell-free; settings: Platelet
[6] = tested on: Plasma; assay: Metabolic stability in 50% human plasma assessed as half life at pH 7.4 by RP-HPLC; format: ADME, cell-free
[7] = tested on: Plasma; assay: Metabolic stability in 50% human plasma assessed as aspirin release at pH 7.4 by RP-HPLC in presence of BuChE-inhibitor dibucaine; format: ADME, cell-free
[8] = tested on: Plasma; assay: Metabolic stability in 50% human plasma assessed as half life at pH 7.4 by RP-HPLC in presence of cholinesterase-inhibitor eserine; format: ADME, cell-free
[9] = tested on: Plasma; assay: Metabolic stability in 50% human plasma assessed as half life at pH 7.4 by RP-HPLC in presence of BuChE-inhibitor isoOMPA; format: ADME, cell-free
[10] = tested on: Plasma; assay: Metabolic stability in 50% human plasma assessed as half life at pH 7.4 by RP-HPLC in presence of AChE-inhibitor PMSF; format: ADME, cell-free
[11] = tested on: Plasma; assay: Metabolic stability in 50% human plasma assessed as aspirin release at pH 7.4 by RP-HPLC in presence of AChE-inhibitor PMSF; format: ADME, cell-free
[12] = tested on: Plasma; assay: Metabolic stability in 50% human plasma assessed as half life at pH 7.4 by RP-HPLC in presence of BuChE-inhibitor dibucaine; format: ADME, cell-free
[13] = tested on: Platelet; assay: Antiplatelets aggregatory activity in washed human platelets assessed as inhibition of ADP-induced platelets aggregation by aggregometry in presence of glutathione and ODQ; format: functional, cell-based
[14] = tested on: Platelet; assay: Antiplatelets aggregatory activity in washed human platelets assessed as inhibition of ADP-induced platelets aggregation by aggregometry in presence of glutathione; format: functional, cell-based
[15] = tested on: Platelet; assay: Antiplatelets aggregatory activity in human platelets rich plasma assessed as inhibition of ADP-induced platelets aggregation by aggregometry in presence of […] ODQ; format: functional, cell-free
[16] = tested on: Platelet; assay: Antiplatelets aggregatory activity in human platelets rich plasma assessed as inhibition of ADP-induced platelets aggregation by aggregometry; format: functional, cell-free

With `CC(=O)Oc1ccccc1C(=O)O[C@H]1CO[C@H]2[C@@H]1OC[C@H]2OC(=O)c1ccnn1C` the Activity [1] was 6%, the Activity [2] was 7% and the half-life [3] was 3.85 min. It also gave a half-life [4] of 5.78 min.

Compound `CC(=O)Oc1ccccc1C(=O)O[C@H]1CO[C@H]2[C@@H]1OC[C@H]2OC(=O)c1ccc([N+](=O)[O-])cc1` has an Activity [1] of 22%, an Activity [2] of 13% and a half-life [3] of 1.36 min. It also gave a half-life [4] of 2.77 min.

Compound `CCOc1cc(OCC)cc(C(=O)O[C@@H]2CO[C@H]3[C@@H]2OC[C@@H]3OC(=O)c2ccccc2OC(C)=O)c1` has an Activity [1] of less than 0.5% and a half-life [3] of 1.7 min.

For `CC(=O)Oc1ccccc1C(=O)O[C@H]1CO[C@H]2[C@@H]1OC[C@H]2OC(=O)c1ccc(C)cc1`, the Activity [1] was 14.7%, the Activity [2] was 16% and the half-life [3] was 2.17 min. The half-life [4] was 6.3 min.

`CC(=O)Oc1ccccc1C(=O)O[C@H]1CO[C@H]2[C@@H]1OC[C@H]2OC(=O)c1ccncc1` showed an Activity [1] of 27%, an Activity [2] of 19% and a half-life [3] of 0.33 min. The half-life [4] was 3.7 min.

With `CC(=O)Oc1ccccc1C(=O)O[C@H]1CO[C@H]2[C@@H]1OC[C@H]2OC(=O)CO[N+](=O)[O-]` the half-life [3] was 0.9 min and the half-life [4] was 3.6 min.

With `CC(=O)Oc1ccccc1C(=O)O[C@H]1CO[C@H]2[C@@H]1OC[C@H]2OC(=O)c1cnccc1Cl` the Activity [1] was 17%, the Activity [2] was 18% and the half-life [3] was 1.93 min. It also gave a half-life [4] of 3.85 min.

In the case of `CC(=O)Oc1ccccc1C(=O)O[C@H]1CO[C@H]2[C@@H]1OC[C@H]2OC(=O)c1ccccc1CO[N+](=O)[O-]`, the Activity [1] is reported as 34%, the Activity [2] is reported as 32% and the half-life [3] is reported as 3.2 min. The IC50 [5] was 90.3 µM and the half-life [4] was 2.7 min.

`CC(=O)Oc1ccccc1C(=O)O[C@H]1CO[C@H]2[C@@H]1OC[C@H]2OC(=O)c1ccc(O)cc1` showed an Activity [1] of 0.5%, an Activity [2] of 1% and a half-life [3] of 1.19 min. It also gave a half-life [4] of 1.19 min.

With `CC(=O)Oc1ccccc1C(=O)O[C@@H]1CO[C@H]2[C@@H]1OC[C@@H]2O[N+](=O)[O-]` (racemic) the half-life [4] was 1.3 min.

`CC(=O)Oc1ccccc1C(=O)O[C@H]1CO[C@H]2[C@@H]1OC[C@H]2O` gave an Activity [1] of less than 0.5%, an Activity [2] of less than 0.5% and a half-life [3] of 1.1 min. It also gave a half-life [4] of 3.3 min.

Work on `CC(=O)Oc1ccccc1C(=O)O[C@H]1CO[C@H]2[C@@H]1OC[C@H]2OC(C)=O` yielded an Activity [1] of 1.3%, an Activity [2] of 1.2% and a half-life [3] of 0.57 min. The half-life [4] was 3.65 min.

In the case of `CC(=O)Oc1ccccc1C(=O)O[C@H]1CO[C@H]2[C@@H]1OC[C@H]2OC(=O)c1cnoc1C`, the Activity [1] is reported as 14%, the t1/2 [6] is reported as 0.06 min and the Activity [2] is reported as 18%. It also gave a half-life [4] of 11.6 min.

Compound `CC(=O)Oc1ccccc1C(=O)O[C@H]1CO[C@H]2[C@@H]1OC[C@H]2OC(=O)c1ccccc1` has an Activity [1] of 29%, an Activity [2] of 19% and a half-life [3] of 0.64 min. It also gave a half-life [4] of 3.3 min.

For `CCCCC(=O)O[C@@H]1CO[C@H]2[C@@H]1OC[C@@H]2OC(=O)c1ccccc1OC(C)=O`, the Activity [1] was less than 0.5%, the half-life [3] was 0.7 min and the half-life [4] was 1.19 min.

`COc1cccc(C(=O)O[C@@H]2CO[C@H]3[C@@H]2OC[C@@H]3OC(=O)c2ccccc2OC(C)=O)c1` gave an Activity [1] of 17%, an Activity [2] of 19% and a half-life [3] of 0.85 min. For the same compound, the half-life [4] was 3.15 min.

`CC(=O)Oc1ccccc1C(=O)O[C@H]1CO[C@H]2[C@@H]1OC[C@H]2OC(=O)c1cccc(O)c1` gave an Activity [1] of 29%, an Activity [2] of 44% and a half-life [3] of 0.9 min. For the same compound, the half-life [4] was 1.1 min.

With `COc1ccc(C(=O)O[C@@H]2CO[C@H]3[C@@H]2OC[C@@H]3OC(=O)c2ccccc2OC(C)=O)cc1` the Activity [1] was 4%, the Activity [2] was 2.6% and the half-life [3] was 1.1 min. It also gave a half-life [4] of 3.15 min.

Work on `CC(=O)Oc1ccccc1C(=O)O[C@H]1CO[C@H]2[C@@H]1OC[C@H]2OC(=O)c1ccc(-c2ccccc2)cc1` yielded an Activity [1] of less than 0.5%, an Activity [2] of less than 0.5% and a half-life [3] greater than 20 min. The half-life [4] was greater than 20 min.

For `CC(=O)Oc1ccccc1C(=O)O[C@H]1CO[C@H]2[C@@H]1OC[C@H]2OC(=O)c1cccc(C)c1`, the Activity [1] was 54%, the Activity [2] was 38% and the half-life [3] was 1.22 min. The half-life [4] was 9.9 min.

With `CC(=O)Oc1ccccc1C(=O)O[C@H]1CO[C@H]2[C@@H]1OC[C@H]2OC(=O)c1cc(C)nc(Cl)c1` the Activity [1] was 14%, the Activity [2] was 24% and the half-life [3] was 1.16 min. It also gave a half-life [4] of 1.16 min.

With `CC(=O)Oc1ccccc1C(=O)O[C@H]1CO[C@H]2[C@@H]1OC[C@H]2O[N+](=O)[O-]` the Activity [1] was 7.7%, the Activity [7] was 6.75% and the Activity [2] was 9.1%. It also gave a t1/2 [8] of 178 min, a t1/2 [9] of 38.3 min and a t1/2 [10] of 2.9 min. It also gave a half-life [3] of 0.188 min, an Activity [11] of 6.2% and a half-life [4] of 0.867 min. The t1/2 [12] was 4.2 min.

Compound `CC(=O)Oc1ccccc1C(=O)O[C@H]1CO[C@H]2[C@@H]1OC[C@H]2OC(=O)c1ccccc1C` has an Activity [1] of 59%, an Activity [2] of 46% and a half-life [3] of 0.83 min. For the same compound, the half-life [4] was 2.1 min.

In the case of `CC(=O)Oc1ccccc1C(=O)O` [ASPIRIN], the IC50 [5] is reported as 20.6 µM.

Work on `CC(=O)Oc1ccccc1C(=O)O[C@H]1CO[C@H]2[C@@H]1OC[C@H]2OC(=O)c1ccc(C#N)cc1` yielded an Activity [1] of less than 0.5%, an Activity [2] of 19% and a half-life [3] of 4.08 min. The half-life [4] was 5.33 min.

Compound `CC(=O)Oc1ccccc1C(=O)O[C@H]1CO[C@H]2[C@@H]1OC[C@H]2OC(=O)CCO[N+](=O)[O-]` has a half-life [3] of 1.3 min and a half-life [4] of 3.9 min.

In the case of `CC(=O)Oc1ccccc1C(=O)O[C@H]1CO[C@H]2[C@@H]1OC[C@H]2OC(=O)c1cccc(CO[N+](=O)[O-])c1`, the Activity [1] is reported as 55%, the Activity [2] is reported as 51% and the inhibition [13] is reported as “inactive”. For the same compound, the half-life [3] was 2.7 min, the inhibition [14] was “Active” and the IC50 [5] was 17.1 µM. For the same compound, the inhibition [15] was “inactive”, the inhibition [16] was “Active” and the half-life [4] was 2.6 min.

With `COc1ccccc1C(=O)O[C@@H]1CO[C@H]2[C@@H]1OC[C@@H]2OC(=O)c1ccccc1OC(C)=O` the Activity [1] was 7%, the Activity [2] was 5% and the half-life [3] was 0.99 min. The half-life [4] was 3.47 min.

Compound `CC(=O)Nc1cccc(C(=O)O[C@@H]2CO[C@H]3[C@@H]2OC[C@@H]3OC(=O)c2ccccc2OC(C)=O)c1` has an Activity [1] of 11% and a half-life [3] of 3.5 min.

With `CC(=O)Oc1ccccc1C(=O)O[C@H]1CO[C@H]2[C@@H]1OC[C@H]2OC(=O)C1CC1` the Activity [1] was less than 0.5%, the Activity [2] was 2% and the half-life [3] was 0.9 min. It also gave a half-life [4] of 1.93 min.

In the case of `CC(=O)Oc1ccccc1C(=O)O[C@H]1CO[C@H]2[C@@H]1OC[C@H]2OC(=O)c1ccc(CO[N+](=O)[O-])cc1`, the Activity [1] is reported as less than 1%, the Activity [2] is reported as less than 5% and the half-life [3] is reported as 2.4 min. The IC50 [5] was greater than 300 µM and the half-life [4] was 6 min.

Compound `CC(=O)Oc1ccccc1C(=O)O[C@H]1CO[C@H]2[C@@H]1OC[C@H]2OC(=O)c1ccccc1O` has an Activity [1] of 85%, an Activity [2] of 72% and a half-life [3] of 1.14 min. The IC50 [5] was 20.6 µM, the inhibition [16] was “Active” and the half-life [4] was 4.95 min.

In the case of `CC(=O)Oc1ccccc1C(=O)O[C@H]1CO[C@H]2[C@@H]1OC[C@H]2OC(=O)c1cccnc1`, the Activity [1] is reported as 32%, the Activity [2] is reported as 41% and the half-life [3] is reported as 0.37 min. For the same compound, the half-life [4] was 1.39 min.

In the case of `CC(=O)Oc1ccccc1C(=O)O[C@H]1CO[C@H]2[C@@H]1OC[C@H]2OC(=O)c1ccccc1OC(=O)c1ccccc1`, the Activity [1] is reported as 19%, the Activity [2] is reported as 28% and the half-life [3] is reported as 4.33 min. The half-life [4] was 23.1 min.

Compound `CCC(=O)O[C@@H]1CO[C@H]2[C@@H]1OC[C@@H]2OC(=O)c1ccccc1OC(C)=O` has an Activity [1] of 7%, an Activity [2] of 6.8% and a half-life [3] of 0.66 min. For the same compound, the half-life [4] was 3.65 min.

For `CC(=O)Oc1ccccc1C(=O)O[C@H]1CO[C@H]2[C@@H]1OC[C@H]2OC(=O)c1snnc1C`, the Activity [1] was 31%, the Activity [2] was 32% and the half-life [3] was 0.39 min. For the same compound, the half-life [4] was 3.85 min.
